Laboratory results taken from PubChem BioAssay AID179 (DTP/NCI, 2004).
Where “and” joins values, the source holds several entries; their conditions need not be identical. Equal entries are not always repeated. Calls of active or inactive are those of the source.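 The calls were made as follows: active = compounds giving half or more protection of infected cells from virus-caused growth loss, again on retest; inactive = the rest.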 Where a SMILES comes first, the peptide text is derived from it. The star is where a group is joined. Boc = CC(C)(C)OC(=O)*; OBn = c1ccc(CO*)cc1

Test system: CEM cells HIV-1 protection, formazan growth assay
Assay: NCI AIDS Antiviral Assay
Conditions: for IC50: measured here: growth of uninfected CEM cells
How it was run: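 Steps: treat uninfected and HIV-1-infected human CEM cells at five drug levels; quantify growth by soluble formazan; retest any compound reaching 50% protection; classify actives from the retest.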

| SMILES | EC50 [µM] | IC50 | outcome |
| --- | --- | --- | --- |
| N#C/C(=C\N1C(=O)/C(=C/c2cccc([N+](=O)[O-])c2)SC1=S)c1nc2ccccc2s1 | > 200 | 29.5 µM | – |
| CSC(=S)N/N=C/c1nccc2ccccc12 | – | – | inactive |
| CC(C)NC(=O)OCc1c(COC(=O)NC(C)C)n(C)c2c1ccc1ccccc12 | > 174 | 0.0813 µM | – |
| CC(=O)CC1CCC(=O)/C=C/C(=O)OC(CC(C)=O)CCC(=O)/C=C/C(=O)O1 (configuration not stated) | > 200 | 1.91 µM | – |
| COc1cc(NC=O)c2c(c1)SC(C)C(=O)N2 (configuration not stated) | 141 | > 200 µM | – |
| O=C(NCC(O)CNC(=O)C(F)(F)F)C(F)(F)F | – | – | inactive |
| COc1ccc(N=Nc2c(N)nn(C)c2N)cc1 | – | – | inactive |
| N#C/C(=C(\O)c1ccccc1)c1nc2ccccc2[nH]1 | > 69.2 | > 69.2 µM | – |
| Cc1cc(C)c(COC(=O)NS(=O)(=O)Nc2ccccc2)c(C)c1 | > 200 | 43.7 µM | – |
| Cc1occc1C(=S)Nc1ccc(Cl)c(C(=O)OC(C(C)C)C(C)C)c1 | 0.0912 | 13.2 µM | – |
| COc1ccc(/C(=N\N)C2=NNC3(CCCCC3)NN2)cc1 | – | – | inactive |
| COc1ccc(NC2=NCCO2)c2c1CCCC2 | > 200 | 77.6 µM | – |
| O=C(/C=C\c1ccc(O)c(O)c1)O[C@@H]1C[C@](O)(C(=O)O)C[C@@H](O)[C@H]1O | > 708 | 97.7 µM and 355 µM | – |
| Cn1cc(NC(=O)c2cc(NC(=O)CCCCCCCCCC(=O)Nc3cc(C(=O)Nc4cc(C(=O)NCCC(=N)N)n(C)c4)n(C)c3)cn2C)cc1C(=O)NCCC(=N)N | 4.37 | 5.75 µM | – |
| CC(C)=CC1C(C(=O)N2CCCCCC2)C1(C)C (configuration not stated) | > 200 | > 200 µM | – |
| O=C(CSSCC(=O)Nc1ccc(Br)cc1)Nc1ccc(Br)cc1 | – | – | inactive |
| O=P(Nc1cccc(Cl)c1)(Oc1ccccc1)N(CCCl)CCCl (configuration not stated) | > 17.8 | 6.46 µM | – |
| O=C(O)Cn1ccc(=O)c2cc([N+](=O)[O-])ccc21 | > 200 | > 200 µM | – |
| C[C@H]1C(=O)CC[C@]2(C)CCC(C(C)(C)O)CC12O (some centres not stated) | – | – | inactive |
| CON(C)C(=O)C(C)NC(=O)OCc1ccccc1 (configuration not stated) | > 933 | 813 µM | – |
| CC1(CCC(=O)c2ccc3c(c2)OCO3)OCCO1 | > 97.7 | > 97.7 µM | – |
| CC(C)(O)[C@H]1OC2CC[C@@]3(C)C(O)(CC[C@H]4Cc5c([nH]c6ccccc56)C43C)C2=CC1=O (some centres not stated) | > 200 | 13.8 µM | – |
| CC(=O)[C@H]1CC[C@H]2[C@@H]3CCC4=CC(=O)CC[C@]4(C)[C@H]3CC[C@]12C | > 200 | 85.1 µM and 91.2 µM | – |
| O=C(O)C1CC1 | – | – | inactive |

| SMILES | EC50 [µM] | IC50 | outcome |
| --- | --- | --- | --- |
| Cc1cccc(C(O)c2cccnc2)c1O (configuration not stated) | > 200 | > 200 µM | – |
| CC(C)C(NC(=O)C(Cc1ccccc1)NC(=O)OC(C)(C)C)C(=O)NCC(=O)OCc1ccccc1 (stereo not drawn) (Boc-Phe-Val-Gly-OBn; configuration not given here) | > 200 | 10.7 µM | – |
| CC(C)(c1ccccc1)C(C)(C)c1nc(-c2ccccc2)cc(-c2ccccc2)n1 | > 3.72 | > 3.72 µM | – |
| O=C(O)CN(c1ccc(Cl)cc1)S(=O)(=O)c1ccccc1 | – | – | inactive |
| CCOC(=O)c1cc(C2CCN(c3ccccc3)C2=O)c(/C(O)=C/C(C)=O)[nH]1 (configuration not stated) | > 200 | 5.01 µM | – |
| COc1ccc(C(=O)/C=C/c2cc(C(C)(C)C)c(O)c(C(C)(C)C)c2)cc1 | > 7.41 | > 7.41 µM | – |
| Cc1ccc(Nc2nc(C)c(C(=O)CC(=O)C(=O)Nc3c(C)cccc3C(C)(C)C)s2)cc1 | > 200 | > 200 µM | – |
| O=C1OC(=O)c2c1nc1ccccc1c2-c1ccccc1 | – | – | inactive |
| CN(C)Cc1cc(C(=O)/C=C/c2c(Cl)cccc2Cl)cc(CN(C)C)c1O | > 200 | 2.69 µM | – |
| CN(C)CCc1ccnc2nc(-c3ccc4ccccc4c3)cn12 | > 200 | 32.4 µM | – |
| CC1=CC(C)(C)SC(SSSSC2=NC(C)=CC(C)(C)S2)=N1 | > 200 | 29.5 µM | – |
| COc1ccc2c(c1)-c1c(c3cc(OC)ccc3n1CCN1CCOCC1)CC2 | – | – | inactive |
| CC(C)(CCc1nc2ccccc2[nH]1)C(=O)O | > 200 | > 200 µM | – |
| CCOC(=O)C(/C=N\C(=S)Nc1ccc(Cl)c(Cl)c1)=C(/O)c1ccccc1 | > 200 | 24 µM | – |
| CCOc1ccccc1NC(=O)C(=O)C(/C(=N/N)C(=O)OC)c1nc2ccc([N+](=O)[O-])cc2[nH]c1=O (configuration not stated) | > 263 | > 263 µM | – |
| C/C=C1\CN2CCc3c([nH]c4ccccc34)C2CC1CC(=O)N(C)C (configuration not stated) | > 200 | > 200 µM | – |
| O=c1c(=O)c2c3c(ccc12)OCO3 | – | – | inactive |
| NN1CCOC1=O | > 200 | > 200 µM | – |
| O=C1OCC2Cc3sccc3C(c3ccccc3)=C12 (configuration not stated) | > 97.7 | > 97.7 µM | – |
| CC(Nc1ccc(S(=O)(=O)N=C(N)N)cc1)c1c2ccccc2nc2ccccc12 (configuration not stated) | – | – | inactive |
| Cc1ccc(NC2=CC(=O)C(=O)c3ccccc32)cc1 | > 27.5 | 20.4 µM | – |
| CC1CCCC(C(O)CC2CC(=O)N(c3ccccc3)C(=O)C2)C1=O (configuration not stated) | > 200 | > 200 µM | – |
| COC(=O)C1=Nc2c(C)nn(-c3ccccc3)c2N=C(c2ccc(C)cc2)C1 | > 200 | > 200 µM | – |
